{"source": "paper PMC6199309", "about": "“A therapeutic approach to pantothenate kinase associated neurodegeneration” (Nature Communications, 2018)", "key": {"PKMYT1": {"target": "T1, PKMYT1 (Homo sapiens, UniProt Q99640)", "T1 construct": "purchased DiscoverX KINOMEscan", "assay": "KINOMEscan", "type": "binding", "settings": "read-out: %Ctrl @ 10000nM"}, "VEGFR2": {"target": "T2, VEGFR2 (Homo sapiens, UniProt P35968)", "T2 construct": "DNA label for qPCR (T7 phage fusion or DNA tag); purchased DiscoverX scanMAX; host or cells: E. coli BL21-derived (T7 phage) or HEK-293", "T2 sequence (P35968 20-1356)": "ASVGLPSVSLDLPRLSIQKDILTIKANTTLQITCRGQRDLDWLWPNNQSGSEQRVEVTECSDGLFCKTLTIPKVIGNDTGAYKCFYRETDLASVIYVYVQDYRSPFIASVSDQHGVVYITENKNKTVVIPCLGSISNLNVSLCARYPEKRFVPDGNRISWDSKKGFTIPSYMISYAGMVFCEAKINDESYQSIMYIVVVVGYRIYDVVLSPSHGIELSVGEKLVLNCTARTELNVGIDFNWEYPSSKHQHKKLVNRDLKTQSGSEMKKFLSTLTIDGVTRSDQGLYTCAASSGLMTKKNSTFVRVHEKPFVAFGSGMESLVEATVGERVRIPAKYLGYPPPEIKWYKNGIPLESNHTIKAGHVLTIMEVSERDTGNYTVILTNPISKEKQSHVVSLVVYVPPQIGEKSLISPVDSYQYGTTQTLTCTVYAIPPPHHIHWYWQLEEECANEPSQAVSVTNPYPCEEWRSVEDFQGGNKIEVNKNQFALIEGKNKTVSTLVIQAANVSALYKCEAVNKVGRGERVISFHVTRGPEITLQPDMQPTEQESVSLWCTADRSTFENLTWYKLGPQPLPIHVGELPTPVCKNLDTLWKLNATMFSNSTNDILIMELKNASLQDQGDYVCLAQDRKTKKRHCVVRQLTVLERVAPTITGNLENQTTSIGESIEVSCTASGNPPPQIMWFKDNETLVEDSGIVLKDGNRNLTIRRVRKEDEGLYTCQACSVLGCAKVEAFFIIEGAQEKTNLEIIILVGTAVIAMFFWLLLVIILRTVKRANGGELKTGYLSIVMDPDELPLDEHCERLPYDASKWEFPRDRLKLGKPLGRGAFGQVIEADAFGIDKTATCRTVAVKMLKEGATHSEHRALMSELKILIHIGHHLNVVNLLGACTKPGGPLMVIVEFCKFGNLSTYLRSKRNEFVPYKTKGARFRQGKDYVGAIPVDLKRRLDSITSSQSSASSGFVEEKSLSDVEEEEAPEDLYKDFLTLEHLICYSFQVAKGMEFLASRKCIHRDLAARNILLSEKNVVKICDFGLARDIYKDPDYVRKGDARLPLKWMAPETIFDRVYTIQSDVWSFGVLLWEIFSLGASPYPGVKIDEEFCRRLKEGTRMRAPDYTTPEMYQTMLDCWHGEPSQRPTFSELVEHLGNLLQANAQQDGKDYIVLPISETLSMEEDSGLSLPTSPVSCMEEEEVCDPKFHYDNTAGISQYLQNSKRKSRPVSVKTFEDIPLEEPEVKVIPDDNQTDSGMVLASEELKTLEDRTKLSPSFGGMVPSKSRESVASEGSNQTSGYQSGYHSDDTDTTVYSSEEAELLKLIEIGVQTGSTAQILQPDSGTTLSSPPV", "assay": "KINOMEscan", "type": "binding", "settings": "read-out: %Ctrl @ 10000nM"}, "LKB1": {"target": "T3, LKB1 (Homo sapiens, UniProt Q15831)", "T3 construct": "purchased DiscoverX KINOMEscan", "T3 sequence (Q15831 whole entry)": "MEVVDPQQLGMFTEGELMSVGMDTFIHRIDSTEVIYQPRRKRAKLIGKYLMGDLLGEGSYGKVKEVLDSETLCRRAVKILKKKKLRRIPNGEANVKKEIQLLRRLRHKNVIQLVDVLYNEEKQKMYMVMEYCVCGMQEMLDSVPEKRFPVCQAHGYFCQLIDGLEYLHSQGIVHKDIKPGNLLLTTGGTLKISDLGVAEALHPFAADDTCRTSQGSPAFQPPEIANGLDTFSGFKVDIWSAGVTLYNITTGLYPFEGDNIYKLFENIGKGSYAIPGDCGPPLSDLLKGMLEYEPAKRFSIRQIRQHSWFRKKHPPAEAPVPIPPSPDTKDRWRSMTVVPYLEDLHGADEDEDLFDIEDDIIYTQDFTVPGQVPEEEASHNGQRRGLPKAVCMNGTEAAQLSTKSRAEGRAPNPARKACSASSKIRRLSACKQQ", "assay": "KINOMEscan", "type": "binding", "settings": "read-out: %Ctrl @ 10000nM"}, "PIP5K1A": {"target": "T4, PIP5K1A (Homo sapiens, UniProt Q99755)", "T4 construct": "purchased DiscoverX KINOMEscan", "T4 sequence (Q99755 whole entry)": "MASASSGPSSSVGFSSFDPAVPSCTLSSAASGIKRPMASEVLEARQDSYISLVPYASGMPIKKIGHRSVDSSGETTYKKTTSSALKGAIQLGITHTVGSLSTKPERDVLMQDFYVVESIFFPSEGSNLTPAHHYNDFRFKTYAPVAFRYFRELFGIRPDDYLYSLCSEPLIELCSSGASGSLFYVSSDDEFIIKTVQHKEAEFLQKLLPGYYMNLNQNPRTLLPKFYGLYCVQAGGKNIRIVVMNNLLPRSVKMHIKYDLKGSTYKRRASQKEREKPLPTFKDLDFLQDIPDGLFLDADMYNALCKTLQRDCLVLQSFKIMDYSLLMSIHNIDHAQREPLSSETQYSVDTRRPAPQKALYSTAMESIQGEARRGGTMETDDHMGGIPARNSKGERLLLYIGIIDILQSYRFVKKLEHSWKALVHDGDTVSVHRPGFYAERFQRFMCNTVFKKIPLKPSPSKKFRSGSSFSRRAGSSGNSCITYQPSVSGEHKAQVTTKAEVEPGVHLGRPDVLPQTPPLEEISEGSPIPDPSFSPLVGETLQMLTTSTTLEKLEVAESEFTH", "assay": "KINOMEscan", "type": "binding", "settings": "read-out: %Ctrl @ 10000nM"}, "TSSK3": {"target": "T5, TSSK3 (Homo sapiens, UniProt Q96PN8)", "T5 construct": "DNA label for qPCR (T7 phage fusion or DNA tag); purchased DiscoverX scanMAX; host or cells: E. coli BL21-derived (T7 phage) or HEK-293", "T5 sequence (Q96PN8 whole entry, the tested form may be a part)": "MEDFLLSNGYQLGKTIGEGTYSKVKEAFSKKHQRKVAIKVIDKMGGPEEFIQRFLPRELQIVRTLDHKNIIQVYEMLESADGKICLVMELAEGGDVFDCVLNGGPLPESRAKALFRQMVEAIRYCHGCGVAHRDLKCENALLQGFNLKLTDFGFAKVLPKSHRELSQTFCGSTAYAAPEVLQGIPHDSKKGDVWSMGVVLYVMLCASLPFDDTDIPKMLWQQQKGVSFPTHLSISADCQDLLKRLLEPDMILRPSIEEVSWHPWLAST", "assay": "KINOMEscan", "type": "binding", "settings": "read-out: %Ctrl @ 10000nM"}, "CSNK1A1L": {"target": "T6, CSNK1A1L (Homo sapiens, UniProt Q8N752)", "T6 construct": "purchased DiscoverX KINOMEscan", "T6 sequence (Q8N752 whole entry)": "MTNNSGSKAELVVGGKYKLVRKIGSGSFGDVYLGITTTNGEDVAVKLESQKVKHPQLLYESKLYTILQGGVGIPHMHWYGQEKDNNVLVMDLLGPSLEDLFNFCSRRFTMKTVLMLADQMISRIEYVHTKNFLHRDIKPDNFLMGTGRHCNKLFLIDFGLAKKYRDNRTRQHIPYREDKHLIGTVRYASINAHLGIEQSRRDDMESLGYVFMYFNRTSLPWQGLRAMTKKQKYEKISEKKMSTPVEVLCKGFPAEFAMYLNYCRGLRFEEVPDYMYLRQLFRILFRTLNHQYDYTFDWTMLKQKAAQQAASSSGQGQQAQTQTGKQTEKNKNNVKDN", "assay": "KINOMEscan", "type": "binding", "settings": "read-out: %Ctrl @ 10000nM"}, "PFTAIRE2": {"target": "T7, PFTAIRE2 (Homo sapiens, UniProt Q96Q40)", "T7 construct": "purchased DiscoverX KINOMEscan", "assay": "KINOMEscan", "type": "binding", "settings": "read-out: %Ctrl @ 10000nM"}, "SRMS": {"target": "T8, SRMS (Homo sapiens, UniProt Q9H3Y6)", "T8 construct": "purchased DiscoverX KINOMEscan", "assay": "KINOMEscan", "type": "binding", "settings": "read-out: %Ctrl @ 10000nM"}, "MAPKAPK5": {"target": "T9, MAPKAPK5 (Homo sapiens, UniProt Q8IW41)", "T9 construct": "purchased DiscoverX KINOMEscan", "T9 sequence (Q8IW41 whole entry)": "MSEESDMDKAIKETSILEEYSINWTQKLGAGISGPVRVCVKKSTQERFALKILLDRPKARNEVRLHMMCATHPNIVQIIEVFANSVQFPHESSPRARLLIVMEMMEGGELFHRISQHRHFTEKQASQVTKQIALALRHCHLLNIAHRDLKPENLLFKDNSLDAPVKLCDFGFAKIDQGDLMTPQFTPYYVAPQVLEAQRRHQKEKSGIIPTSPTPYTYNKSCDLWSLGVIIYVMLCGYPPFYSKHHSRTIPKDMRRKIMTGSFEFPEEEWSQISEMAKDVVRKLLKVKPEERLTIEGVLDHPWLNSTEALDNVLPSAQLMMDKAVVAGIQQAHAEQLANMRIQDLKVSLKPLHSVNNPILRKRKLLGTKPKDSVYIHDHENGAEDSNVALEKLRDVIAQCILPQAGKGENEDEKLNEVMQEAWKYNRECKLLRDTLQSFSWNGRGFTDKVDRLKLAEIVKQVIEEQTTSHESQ", "assay": "KINOMEscan", "type": "binding", "settings": "read-out: %Ctrl @ 10000nM"}, "RIPK1": {"target": "T10, RIPK1 (Homo sapiens, UniProt Q13546)", "T10 construct": "purchased DiscoverX KINOMEscan", "T10 sequence (Q13546 whole entry)": "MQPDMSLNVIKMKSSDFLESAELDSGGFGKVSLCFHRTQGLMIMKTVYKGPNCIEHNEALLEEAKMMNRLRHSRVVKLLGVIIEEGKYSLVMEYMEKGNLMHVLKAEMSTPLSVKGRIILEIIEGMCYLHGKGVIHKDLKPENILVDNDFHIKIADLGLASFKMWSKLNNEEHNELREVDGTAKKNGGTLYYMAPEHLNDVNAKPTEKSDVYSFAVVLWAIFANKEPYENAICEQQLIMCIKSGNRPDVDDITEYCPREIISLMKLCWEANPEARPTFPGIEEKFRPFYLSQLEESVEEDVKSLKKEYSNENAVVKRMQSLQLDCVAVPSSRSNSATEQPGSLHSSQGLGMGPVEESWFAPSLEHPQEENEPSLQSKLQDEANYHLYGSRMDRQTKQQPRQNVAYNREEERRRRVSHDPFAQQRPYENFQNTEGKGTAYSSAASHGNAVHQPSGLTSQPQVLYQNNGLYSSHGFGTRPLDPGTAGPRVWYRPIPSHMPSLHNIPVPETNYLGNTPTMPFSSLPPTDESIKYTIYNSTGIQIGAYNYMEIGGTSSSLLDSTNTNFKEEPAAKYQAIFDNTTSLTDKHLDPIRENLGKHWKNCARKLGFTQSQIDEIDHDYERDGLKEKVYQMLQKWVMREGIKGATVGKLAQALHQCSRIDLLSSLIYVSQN", "assay": "KINOMEscan", "type": "binding", "settings": "read-out: %Ctrl @ 10000nM"}, "MST2": {"target": "T11, MST2 (Homo sapiens, UniProt Q13188)", "T11 construct": "purchased DiscoverX KINOMEscan", "assay": "KINOMEscan", "type": "binding", "settings": "read-out: %Ctrl @ 10000nM"}, "STK33": {"target": "T12, STK33 (Homo sapiens, UniProt Q9BYT3)", "T12 construct": "purchased DiscoverX KINOMEscan", "assay": "KINOMEscan", "type": "binding", "settings": "read-out: %Ctrl @ 10000nM"}, "C3A cells": {"tested_on": "C3A cells", "assay": "Intracellular CoA and metabolite levels in C3A cells", "type": "cell-based, human", "settings": "24 h", "protocol": "HEK293T cells (ATCC, #CRL-3216) were maintained in Dulbecco’s modified Eagle’s medium (DMEM, Biowhittaker/Lonza) supplemented with 10% FCS. Human C3A [HepG2/C3A, derivative of HepG2] cells (ATCC #CRL-10741) were purchased from ATCC® and maintained in Eagle’s minimum Essential medium (ATCC) supplemented with 2 mM glutamine, 10% fetal bovine serum (FCS, Altanta Biologicals), 50 U/ml penicillin and […] streptomycin. Both cell lines were confirmed to be mycoplasma-free. […]. […] After 24 h of treatment (total 48 h after transfection) the cells were washed with PBS and harvested and subjected to either total CoA or acetyl-CoA determinations.\nPrior to labeling, cells were seeded at a density of 2–3 × 10^6 in 60 mm-dishes in reconstituted DMEM without added pantothenate and allowed to adhere overnight. The labeling was initiated by replacing the medium with 2 ml of labeling medium containing 0.1% dimethylsulfoxide (DMSO; control) or 10 μM of the compound in 0.1% DMSO. Cells were incubated for 24 h, the labeling medium was removed, and cells were washed with phosphate buffered saline and lysed by sonication in 20 mM Tris-HCl, pH 7.5, 2 mM DTT, 5 mM EDTA and 50 mM NaF. The lysates were fractionated by thin-layer chromatography after removal of the cell debris by centrifugation. The samples were spotted on Silica Gel H plates and resolved with 95% ethanol:28% ammonium hydroxide (4/1, v/v). The distribution of radioactivity on the plate was quantified using a Bioscan Imager (Bioscan, Inc.) together with quantification of the total cellular radioactivity determined by a Liquid Scintillation Analyzer (PerkinElmer Tri-Carb 2910 TR). Triplicate culture dishes were labeled for each group plus a dish for each group for determination of cell counts and viability using a Nucleocounter (New Brunswick Scientific) according to the manufacturer’s directions. The experiments were repeated twice in duplicate and the data represented is an overall average ± SEM.\nCultured cells or frozen tissues were resuspended in 2 ml cold water to which 500 μl of 0.25 M KOH was added, derivatized with monobromobimane (mBBr, Life technologies) and quantified by HPLC[23]. For acetyl-CoA determinations, C3A cells were resuspended in 1 ml water, added to 2 ml of methanol and 1 ml chloroform, and incubated on ice for 15 min. Chloroform 1.5 ml, 1.2 ml water and 30 pmol of [^13C2]acetyl-CoA (Sigma) was added, and centrifuged at 2000×g for 10 min. The top layer was loaded on a 2-(2-pyridyl) ethyl solid phase extraction column which was equilibrated with 1 ml 50% methanol/2% acetic acid. The column was washed twice with 1 ml 50% methanol/2% acetic acid and 1 ml water. CoA and thioesters were eluted twice with 1 ml 95% ethanol containing 50 mM ammonium hydroxide. Samples were resuspended in 90% methanol containing 15 mM ammonium hydroxide.\nThe mBBr derivatized sample was fractionated by reverse-phase HPLC using a Gemini C18 3 μm column (150 × 4.60 mm) from Phenomenex. The chromatography system was a Waters e2695 separation module with a UV/Vis and fluorescence detector and controlled by Empower 3 software. Solvent A was 50 mM potassium phosphate pH 4.6, and solvent B was 100% acetonitrile. Twenty microliters of sample was injected onto the column, and the flow rate was 0.5 ml/min. The HPLC program was the following: starting solvent mixture of 90% A/10% B, 0–2 min isocratic with 10% B, 2–6 min linear gradient from 10% B to 15% B, 6–18 min concave gradient from 15% B to 40% B, 18–23 min isocratic with 40% B, 23–25 min linear gradient from 40 to 10%, and 25–30 min isocratic with 10% B. The UV/vis detector was set at 393 nm, and the fluorescence detector was set with excitation at 393 nm and emission at 470 nm. […]"}, "EPHA2": {"target": "T13, EPHA2 (Homo sapiens, UniProt P29317)", "T13 construct": "purchased DiscoverX KINOMEscan", "assay": "KINOMEscan", "type": "binding", "settings": "read-out: %Ctrl @ 10000nM"}, "MST4": {"target": "T14, MST4 (Homo sapiens, UniProt Q9P289)", "T14 construct": "purchased DiscoverX KINOMEscan", "T14 sequence (Q9P289 whole entry)": "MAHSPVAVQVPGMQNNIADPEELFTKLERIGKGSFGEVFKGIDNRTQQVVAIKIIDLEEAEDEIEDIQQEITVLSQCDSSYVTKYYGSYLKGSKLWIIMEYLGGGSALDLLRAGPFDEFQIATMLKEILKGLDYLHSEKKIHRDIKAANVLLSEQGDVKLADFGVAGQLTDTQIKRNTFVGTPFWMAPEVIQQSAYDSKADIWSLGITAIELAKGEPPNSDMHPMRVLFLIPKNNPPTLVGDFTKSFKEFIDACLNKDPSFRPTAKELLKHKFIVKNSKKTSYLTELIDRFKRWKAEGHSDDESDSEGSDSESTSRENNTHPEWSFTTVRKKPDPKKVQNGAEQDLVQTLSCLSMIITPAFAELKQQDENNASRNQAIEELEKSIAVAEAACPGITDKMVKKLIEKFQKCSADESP", "assay": "KINOMEscan", "type": "binding", "settings": "read-out: %Ctrl @ 10000nM"}, "YES": {"target": "T15, YES (Homo sapiens, UniProt P07947)", "T15 construct": "purchased DiscoverX scanMAX; host or cells: E. coli BL21-derived host (T7 phage) or HEK-293", "assay": "KINOMEscan", "type": "binding", "settings": "read-out: %Ctrl @ 10000nM"}, "ACVRL1": {"target": "T16, ACVRL1 (Homo sapiens, UniProt P37023)", "T16 construct": "purchased DiscoverX KINOMEscan", "assay": "KINOMEscan", "type": "binding", "settings": "read-out: %Ctrl @ 10000nM"}, "CLK1": {"target": "T17, CLK1 (Homo sapiens, UniProt P49759)", "T17 construct": "purchased DiscoverX KINOMEscan", "T17 sequence (P49759 whole entry)": "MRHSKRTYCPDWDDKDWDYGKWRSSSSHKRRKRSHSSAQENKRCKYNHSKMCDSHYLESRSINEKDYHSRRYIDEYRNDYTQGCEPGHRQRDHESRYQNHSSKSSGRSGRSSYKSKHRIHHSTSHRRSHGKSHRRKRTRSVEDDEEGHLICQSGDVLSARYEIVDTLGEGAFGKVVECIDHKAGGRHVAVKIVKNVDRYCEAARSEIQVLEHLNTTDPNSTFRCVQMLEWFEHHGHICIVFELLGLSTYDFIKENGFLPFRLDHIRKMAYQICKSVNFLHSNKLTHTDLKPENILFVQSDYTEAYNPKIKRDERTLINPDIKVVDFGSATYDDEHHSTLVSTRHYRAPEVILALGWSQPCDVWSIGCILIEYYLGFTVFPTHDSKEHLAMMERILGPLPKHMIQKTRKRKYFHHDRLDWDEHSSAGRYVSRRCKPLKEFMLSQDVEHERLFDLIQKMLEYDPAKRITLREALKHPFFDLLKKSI", "assay": "KINOMEscan", "type": "binding", "settings": "read-out: %Ctrl @ 10000nM"}}}
{"smiles": "CC(C)c1ccc(CC(=O)N2CCN(c3ccc(C#N)nn3)CC2)cc1", "note": "[PZ-2891, 6-(4-(2-(4-isopropylphenyl)acetyl)piperazin-1-yl)pyridazine-3-carbonitrile]", "values": [{"measurement": "remaining binding at 10 µM", "setting": "PKMYT1", "value": 100, "unit": "%"}, {"measurement": "remaining binding at 10 µM", "setting": "VEGFR2", "value": 75, "unit": "%"}, {"measurement": "remaining binding at 10 µM", "setting": "LKB1", "value": 93, "unit": "%"}, {"measurement": "remaining binding at 10 µM", "setting": "PIP5K1A", "value": 86, "unit": "%"}, {"measurement": "remaining binding at 10 µM", "setting": "TSSK3", "value": 69, "unit": "%"}, {"measurement": "remaining binding at 10 µM", "setting": "CSNK1A1L", "value": 100, "unit": "%"}, {"measurement": "remaining binding at 10 µM", "setting": "PFTAIRE2", "value": 99, "unit": "%"}, {"measurement": "remaining binding at 10 µM", "setting": "SRMS", "value": 72, "unit": "%"}, {"measurement": "remaining binding at 10 µM", "setting": "MAPKAPK5", "value": 74, "unit": "%"}, {"measurement": "remaining binding at 10 µM", "setting": "RIPK1", "value": 98, "unit": "%"}, {"measurement": "remaining binding at 10 µM", "setting": "MST2", "value": 92, "unit": "%"}, {"measurement": "remaining binding at 10 µM", "setting": "STK33", "value": 90, "unit": "%"}, {"measurement": "intracellular CoA ([3H]pantothenate labeling)", "setting": "C3A cells; 10 μM, C3A cells", "value": "increased the amount of intracellular CoA"}, {"measurement": "intracellular pantothenate ([3H]pantothenate labeling)", "setting": "C3A cells; 10 μM, C3A cells", "value": "lowered intracellular pantothenate"}, {"measurement": "acetyl-CoA levels in C3A cells", "setting": "C3A cells; 10 μM, mass spectrometry", "value": "higher acetyl-CoA levels"}, {"measurement": "total intracellular CoA levels in C3A cells", "setting": "C3A cells; increasing concentrations (20 and 50 μM less activating)", "value": "CoA progressively increased up to 10 μM"}, {"measurement": "remaining binding at 10 µM", "setting": "EPHA2", "value": 100, "unit": "%"}, {"measurement": "remaining binding at 10 µM", "setting": "MST4", "value": 91, "unit": "%"}, {"measurement": "remaining binding at 10 µM", "setting": "YES", "value": 90, "unit": "%"}, {"measurement": "remaining binding at 10 µM", "setting": "ACVRL1", "value": 100, "unit": "%"}, {"measurement": "remaining binding at 10 µM", "setting": "CLK1", "value": 75, "unit": "%"}]}
